Values joined by “and” are separate entries in the source; they are usually repeats but may differ in a detail not shown here. Equal values may be shown once.
Key:
Ramos cells [1] = assay: Internalization efficacy by flow cytometry, Ramos cells; assay type: cell-based; conditions: 10 μg/mL, 37° C. 2 h, FIG. 2C
Method: (§1) Experiment 1: Method for Internalization Efficacy of Antibody-Drug Conjugate (TRS005) by Flow Cytometry
(§2) Cell preparation: take logarithmic growth phase Raji cells or Ramos cells, centrifuge at 1000 rpm for 5 minutes, resuspend using DPBS, adjust the density of live cells to 2×10^6 cells/mL, and divide into 1.5 mL centrifuge tubes, 1 mL/tube.
(§3) Sample dilution: The sample to be tested (TRS005 with a DAR of approximately 4.2) was diluted to 1000 μg/mL, 10 μL was added to each 1 mL of cell suspension, and blown and mixed to make the final concentration of the sample 10 μg/mL.
(§4) Incubation the cell suspension to which the samples were added was placed on ice and ice-bath for 30 minutes. […]
(§5) Cells from the negative control group treated with ice bath were gating and the average fluorescence intensity of cells in each tube at FL1 was recorded. […]
(§6) The percentage of endocytosis of the samples was calculated based on the average fluorescence intensity according to the following formula.
(§7) Internalization efficacy ratio %=(mean fluorescence intensity of negative control group−mean fluorescence intensity of experimental group)/mean fluorescence intensity of negative control group×100%.

[2] = test system: Daudi cell xenografts tumor; assay: In vivo anti-tumor activity test, Daudi graft tumor; design: species or system BALB/c nude mice; conditions: tail vein, 6 injections over 21 days, two batches (first and second), listed as TRS005
Text: Experiment 3 In vivo Anti-Tumor Activity Test
1. Test animals and housing environment
Species: BALB/c nude mice
Gender of animals: male mice.
Age at acquisition: 6-8 weeks; Body weight at the beginning of the experiment: 18˜20 g.
Housing environment: SPF grade.
Daudi cells were purchased from the cell bank of the Type Culture Collection of the Chinese Academy of Sciences.
3. TEST SAMPLE: The Test Sample was Selected From Two Batches of the Product Prepared in Example 2.
Under aseptic conditions of 5% CO2 and 37° C., Daudi cells were cultured with PRMI1640 medium containing 10% fetal bovine serum, respectively, and expanded to 5.0×10^8 cells. Cells were collected by centrifugation and mixed 1:1 with Matrix gel and inoculated subcutaneously into the right side of the rib cage of BALB/c nude mice at 1×10^7 cells/200 μl/animal.
When the mean tumor volume reached 100 mm3, the group was randomized: […]
There were 10 nude mice in each group. Then the administration of the drug was started by tail vein administration, and the body weight of BALB/c nude mice and the long and short diameters of the tumors were measured, and recorded during the administration. […]
Tumor volume and Tumor weight were expressed as Mean±Standard Error of the Mean (Mean±SEM). Statistical tests were analyzed by one-way analysis of variance (ANOVA), with p<0.05 considered significant and p<0.01 considered highly significant.

Ramos cells [3] = assay: In vitro cytotoxicity assay (CCK-8); assay type: cell-based; conditions: about 72 hours incubation, parallel detections 1 and 2
Text: Experiment 2: In vitro Cytotoxicity Assay
FBS, purchased from Lonsera, product number S711-001S;
Streptomycin/Penicillin Dual Antibody, purchased from HyClone, Lot: SV30010;
DPBS (Dulbecco's Phosphate Buffer Solution) was purchased from Gibco, product number 14190-136;
CCK-8 reagent, purchased from Biolite, product number 35004.
Ramos cells were purchased from COBIOER BIOSCIENCES CO., LTD.
Cell culture and plating: Ramos cells with viability greater than 80% in the logarithmic growth phase up to 30 generations were selected for the experiment. Ramos cells were removed from culture flasks and added to 50 mL centrifuge tubes and blown to mix. 1000 rpm (≈188g) centrifugation was performed for 5-6 minutes. The supernatant was discarded and the cells were resuspended with the appropriate volume of diluent. […]
Plate reading: Load the plate into the enzyme labeling instrument and read the plate with 450 nm as the reading wavelength and 650 nm as the reference wavelength.
Data processing: The IC50 value was calculated using a four-parameter fitting model with the concentration value as the horizontal coordinate and the difference between the absorbance value at 450 nm minus the absorbance value at 650 nm as the vertical coordinate.

Raji cells = assay: Internalization efficacy by flow cytometry, Raji cells; assay type: cell-based; conditions: 10 μg/mL, 37° C. 2 h, FIG. 2D
Method: as §1, §2, §3, §4, §5, §6, §7

## Example 2: Anti-CD20 antibody TRS001 (rituximab biosimilar) conjugated to MMAE via maleimidocaproyl-valine-citrulline-p-aminobenzyloxycarbonyl linker; preferred DAR distribution
Ramos cells [1]
  internalization efficacy: good internalization efficacy
[2]; 0.75 mg/kg
  tumor inhibition rate: 91.08% and 92.09%
[2]; 1.5 mg/kg
  tumor inhibition rate: 97.15% and 97.71%
Ramos cells [3]
  IC50: 0.0589 µg/mL and 0.0648 µg/mL
Raji cells
  internalization efficacy: good internalization efficacy

Source: patent US20250269049A1, “CD20-TARGETED ANTIBODY COUPLING PHARMACEUTICAL PREPARATION” (priority 2017, published 2025)
